A short description of this test: Agonist activity at VDR in human HL60 cells assessed as induction of cell differentiation after 96 hrs by NBT reduction assay.

For `CCn1c(C(=O)N[C@@H](C)C(=O)O)ccc1C(CC)(CC)c1ccc(OCC(O)C(C)(C)C)c(C)c1` (stereo not given in full), the EC50 – broadly, the concentration needed to bring the measured effect to its halfway point – was found to be 4.1 nM.
Take `CCn1c(C(=O)NCC(=O)OC)ccc1C(CC)(CC)c1ccc(OCC(=O)C(C)(C)C)c(C)c1`: the EC50 is 1830 nM.
As to `CCC(CC)(c1ccc(OCC(O)C(C)(C)C)c(C)c1)c1ccc(C(=O)NCCCO)n1C` (stereo not given), the concentration giving a half-maximal response (EC50) was 150 nM.
To `CCC(CC)(c1ccc(OCC(O)C(C)(C)C)c(C)c1)c1ccc(C(=O)N[C@H](CO)CCO)n1C` (stereo not given in full) belongs 200 nM; to `CCn1c(C(=O)NCCO)ccc1C(CC)(CC)c1ccc(OCC(O)C(C)(C)C)c(C)c1` (stereo not given), 5640 nM.
The value for `CCn1c(C(=O)N[C@@H](C)CO)ccc1C(CC)(CC)c1ccc(OCC(O)C(C)(C)C)c(C)c1` (stereo not given in full) was 1.1 nM.
To `CCC(CC)(c1ccc(OCC(=O)C(C)(C)C)c(C)c1)c1ccc(C(=O)NCC(=O)OC)n1C` belongs 23 nM.
As to `CCC(CC)(c1ccc(OCC(O)C(C)(C)C)c(C)c1)c1ccc(C(=O)N[C@@H](C)CO)n1C` (stereo not given in full), the concentration for a half-maximal effect (EC50) was determined as 570 nM.
The value for `CCC(CC)(c1ccc(OCC(=O)C(C)(C)C)c(C)c1)c1ccc(C(=O)NCCC(=O)OC)n1C` was 790 nM; that for `CCC(CC)(c1ccc(OCC(O)C(C)(C)C)c(C)c1)c1ccc(C(=O)NCCC(=O)O)n1C` (stereo not given) was 1600 nM; that for `C=C1/C(=C\C=C2/CCC[C@]3(C)[C@@H]([C@H](C)CC[C@@H](O)C(C)C)CC[C@@H]23)C[C@@H](O)C[C@@H]1O` [TACALCITOL] was 7.1 nM.
To `CCC(CC)(c1ccc(OCC(=O)C(C)(C)C)c(C)c1)c1ccc(C(=O)N[C@@H](C)C(=O)O)n1C` belongs 2630 nM.
The value for `CCn1c(C(=O)N[C@H](CO)CCO)ccc1C(CC)(CC)c1ccc(OCC(O)C(C)(C)C)c(C)c1` (stereo not given in full) was 110 nM; that for `CCC(CC)(c1ccc(OCC(O)C(C)(C)C)c(C)c1)c1ccc(C(=O)NCC(=O)O)n1C` (stereo not given) was 4950 nM.
Consider `CCC(CC)(c1ccc(OCC(=O)C(C)(C)C)c(C)c1)c1ccc(C(=O)N[C@@H](CC(=O)O)C(=O)O)n1C`, for which the EC50 is 410 nM.
